Reference: patent EP2524688B1, “Composition for modified release comprising ranolazine” (ratiopharm GmbH, priority 2011, dated 2012)

Test: Stability under stressed conditions (assay and degradation products)
Assay type: physicochemical
Details: storage over 5 weeks at 40 °C with 75 % RH and open cap
Procedure: In Table 1 assay and degradation products results for ranolazine per se, a pharmaceutical composition of the present invention, comprising ranolazine and HPMC-AS as well as a comparative pharmaceutical composition known from the prior art under stressed conditions are shown. Herein the stressed conditions are defined as storage over 5 weeks at 40 °C with 75 % RH and open cap.

Assay (%): 99.6%
Biggest impurity % (RRt) (RRt in brackets in the row below): 0.066%
Structure (SMILES): COc1ccccc1OCC(O)CN1CCN(CC(=O)Nc2c(C)cccc2C)CC1 (racemic) [Ranolazine (raw material), (RS)-N-(2,6-Dimethylphenyl)-2-[4-[2-hydroxy-3-(2-methoxyphenoxy)propyl]piperazin-1-yl]acetamide]
